pEC50: −log10 of the molar value. Counter-ions that a name gives are not always drawn. Like-named read-outs stand apart in the source and are kept apart here.
Experiments:
[1] = system: aromatization (estrogen synthesis); experiment: Estrogen synthesis inhibition in rats (uterine weight and ovarian steroid levels); format: in vivo, rat (immature female Wistar); conditions: 7 days; for Mean Uterine Weight: testosterone propionate-treated rats; for Mean Steroid Concentration, estrone / Mean Steroid Concentration, estriol / Mean Steroid Concentration, estradiol: ovaries; for Mean Steroid Concentration, estrone: testosterone-treated control 0.19; for Mean Steroid Concentration, estriol: testosterone-treated control 0.53; for Mean Steroid Concentration, estradiol: testosterone-treated control 0.55
[2] = target: T1, aromatase (Rattus norvegicus, UniProt P22443); experiment: biochemical
T1 sequence (P22443 1-508): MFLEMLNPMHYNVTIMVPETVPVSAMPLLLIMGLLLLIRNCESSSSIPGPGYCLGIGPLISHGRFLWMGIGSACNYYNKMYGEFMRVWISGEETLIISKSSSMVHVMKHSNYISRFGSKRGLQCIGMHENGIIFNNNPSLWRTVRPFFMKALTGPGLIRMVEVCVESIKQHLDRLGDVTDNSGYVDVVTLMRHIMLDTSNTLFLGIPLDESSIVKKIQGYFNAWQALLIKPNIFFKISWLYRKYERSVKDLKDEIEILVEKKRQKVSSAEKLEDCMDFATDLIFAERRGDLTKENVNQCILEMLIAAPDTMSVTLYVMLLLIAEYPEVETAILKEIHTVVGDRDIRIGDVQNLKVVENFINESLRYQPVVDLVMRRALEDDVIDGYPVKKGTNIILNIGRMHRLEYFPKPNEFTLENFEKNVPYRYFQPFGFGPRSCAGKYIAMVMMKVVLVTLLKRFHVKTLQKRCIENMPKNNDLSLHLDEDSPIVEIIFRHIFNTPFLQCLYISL
Procedure: In this test system, ovarian microsomes are obtained from rats treated with pregnant mares serum gonadotropin. Test compounds are added to reaction vials containing 0.1 μM 4-androstene-3,17-dione, 100,000 dpm 1,2[^3 H]-androstenedione, the microsomes and a NADPH generating system. The concentrations of the inhibitors tested ranged between 0.005 and 10 μM.

[3] = system: breast cancer; conditions: known aromatase inhibitors; Cancer Research, Vol. 42, Suppl. 8:3261s (1982); cited from earlier work
[4] = 30 ppm in feed (approx. 3 mg/kg/day)
[5] = 300 ppm in feed (approx. 30 mg/kg/day)
[6] = rat ovarian microsomes, substrate (androstenedione) concentration 0.1 μM

Clc1cc2c(cc1Cl)C(n1ccnc1)CC2.O=[N+]([O-])O (stereo not drawn)
Mean Uterine Weight ([1]; 30 ppm in feed (approx. 3 mg/kg/day), 4 animals, testosterone-treated control 140.8): 152.5 mg | Mean Uterine Weight ([1]; 300 ppm in feed (approx. 30 mg/kg/day), 5 animals, significantly different from testosterone-treated control (140.8), p < 0.05): 103.2 mg | Mean Steroid Concentration, estrone [1, 4]: 0.21 femtomoles per milligram of protein | Mean Steroid Concentration, estriol [1, 4]: 0.46 femtomoles per milligram of protein | Mean Steroid Concentration, estradiol [1, 4]: 0.71 femtomoles per milligram of protein | Mean Steroid Concentration, estrone [1, 5]: 0.17 femtomoles per milligram of protein | Mean Steroid Concentration, estriol [1, 5]: 0.49 femtomoles per milligram of protein | Mean Steroid Concentration, estradiol [1, 5]: 0.35 femtomoles per milligram of protein

c1ccc2c(c1)OCCC2n1ccnc1 (stereo not drawn) [1-(3,4-dihydro-2H-1-benzopyran-4-yl)-1H-imidazole hydrochloride]
pEC50 [2, 6]: 5.55

Clc1cccc2c1CCC2n1ccnc1 (stereo not drawn) [1-(4-chloro-2,3-dihydro-1H--inden-1-yl)-1H--imidazole nitrate]
pEC50 [2, 6]: 6.17

Clc1ccc2c(c1)C(n1ccnc1)CCC2 (stereo not drawn) [1-(7-chloro-1,2,3,4-tetrahydro-1-naphthalenyl)-1H--imidazole nitrate]
pEC50 [2, 6]: 7.00

CCC1(c2ccc(N)cc2)CCC(=O)NC1=O (stereo not drawn) [aminoglutethimide]
effect in treatment of breast cancer [3]: beneficial effect in treatment of breast cancer

COc1ccc(OC)c2c1CCC2n1ccnc1 (stereo not drawn) [nitrate]
pEC50 [2]: 6.06

COc1ccc2c(c1)C(n1ccnc1)CCC2 (stereo not drawn) [nitrate]
pEC50 [2]: 6.35

COc1cccc2c1CCCC2n1ccnc1 (stereo not drawn) [nitrate]
pEC50 [2]: 6.60

Clc1cc(Cl)c2c(c1)C(n1ccnc1)CC2 (stereo not drawn) [nitrate]
pEC50 [2]: 6.94

Clc1cc2c(cc1Cl)C(n1ccnc1)CC2.O=[N+]([O-])O (stereo not drawn) [nitrate]
pEC50 [2]: 7.11

c1ccc2c(c1)CCC2n1ccnc1 (stereo not drawn) [nitrate]
pEC50 [2]: 6.09

c1ccc2c(c1)CCCC2n1ccnc1 (stereo not drawn) [nitrate]
pEC50 [2]: 6.28

c1ccc2c(c1)SCCC2n1ccnc1 (stereo not drawn) [nitrate]
pEC50 [2]: 5.99

C[C@]12C=CC(=O)C=C1CC[C@@H]1[C@@H]2CC[C@]2(C)OC(=O)CC[C@@H]12 [testolactone]
effect in treatment of breast cancer [3]: beneficial effect in treatment of breast cancer
